Data taken from patent US9527838B2, “2-pyridinecarboxamide derivatives, compositions containing such compounds, and methods of treatment” (priority 2012, dated 2016).
pEC50: −log10 of the molar value.

Target: Recombinant human liver glucokinase (Homo sapiens (Human), UniProt P35557)
Test: Glucokinase activation assay (G6PDH-coupled, Thio-NADH absorbance at 405 nm)
Format: biochemical
Details: for pEC50: 2.5 mM Glu, 30° C.
From the text: The glucokinase activity can, for instance, be determined without directly measuring glucose-6-phosphate by measuring the amount of Thio-NADH generated during the production of phosphogluconolactone from glucose-6-phosphate by a reporter enzyme glucose-6-phosphate dehydrogenase.
To test the exemplified compounds, the following assay was employed. Recombinant human liver glucokinase was expressed as a FLAG fusion protein in E. coli, and purified on […] M2 AFFINITY GEL (Sigma). The assay was carried out at 30° C. in a 96-well plate. In the plate was distributed 69 μl each of assay buffer (25 mM Hepes Buffer: pH=7.2, 2 mM MgCl2, 1 mM ATP, 0.5 mM TNAD, 1 mM dithiothreitol), to which was added 1 μl of a DMSO solution of the compound or DMSO as control. Then, 20 μl of pre-ice-cooled enzyme mixture (FLAG-GK, 20 U/ml G6PDH) was distributed thereto, to which was added 10 μl of 25 mM glucose as substrate to initiate the reaction (final glucose concentration=2.5 mM). After starting the reaction, the absorbance at 405 nm was measured every 30 seconds for 10 minutes to evaluate the compound based on the initial increase for 5 minutes. FLAG-GK was added so that the increase of absorbance after 5 minutes fell between 0.05 to 0.1 in the presence of 1% DMSO.
The OD values of the respective compounds were measured in the respective concentrations, wherein the OD value of DMSO as control is regarded as 100%.

Sequence of Recombinant human liver glucokinase (P35557 other isoform, or with tags, fused parts or gaps): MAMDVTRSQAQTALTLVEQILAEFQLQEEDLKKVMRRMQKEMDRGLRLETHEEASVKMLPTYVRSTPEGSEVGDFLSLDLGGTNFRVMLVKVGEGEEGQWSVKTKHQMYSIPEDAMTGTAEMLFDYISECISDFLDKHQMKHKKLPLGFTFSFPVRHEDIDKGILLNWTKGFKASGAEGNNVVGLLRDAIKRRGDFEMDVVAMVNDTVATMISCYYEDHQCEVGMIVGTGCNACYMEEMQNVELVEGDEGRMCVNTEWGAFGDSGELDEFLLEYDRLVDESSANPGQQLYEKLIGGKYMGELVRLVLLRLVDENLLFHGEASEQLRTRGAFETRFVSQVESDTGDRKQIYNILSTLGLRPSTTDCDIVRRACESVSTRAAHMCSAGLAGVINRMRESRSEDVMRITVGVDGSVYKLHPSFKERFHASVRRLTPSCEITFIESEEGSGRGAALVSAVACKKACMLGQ

Compound: Cn1cnnc1Sc1ccc(Sc2ccc(F)cc2)c(C(=O)Nc2nc(CC(=O)O)c(Cl)s2)n1 [Example 25, {5-Chloro-2-[({3-[(4-fluorophenyl)sulfanyl]-6-[(4-methyl-4H-1,2,4-triazol-3-yl)sulfanyl]pyridin-2-yl}carbonyl)amino]-1,3-thiazol-4-yl}acetic acid]
- Emax: 525%
- pEC50: 7.73

Compound: COC(=O)CCc1cnc(NC(=O)c2nc(Sc3ccccn3)ccc2Sc2ccc(F)cc2)s1 [Example 39, Methyl 3-{2-[({3-[(4-fluorophenyl)sulfanyl]-6-(pyridin-2-ylsulfanyl)pyridin-2-yl}carbonyl)amino]-1,3-thiazol-5-yl}propanoate]
- Emax: 468%
- pEC50: 6.14

Compound: COc1ccc(Sc2ccc(Sc3nncn3C)nc2C(=O)Nc2ccc(CC(N)=O)cc2)cc1 [Example 9, N-[4-(2-Amino-2-oxoethyl)phenyl]-3-[(4-methoxyphenyl)sulfanyl]-6-[(4-methyl-4H-1,2,4-triazol-3-yl)sulfanyl]pyridine-2-carboxamide]
- Emax: 191%
- pEC50: 5.72

Compound: Cn1cnnc1Sc1ccc(Sc2ccc(C(F)(F)F)cc2)c(C(=O)Nc2nc(CC(=O)O)c(Cl)s2)n1 [Example 42, (5-Chloro-2-{[(6-[(4-methyl-4H-1,2,4-triazol-3-yl)sulfanyl]-3-{[4-(trifluoromethyl)phenyl]sulfanyl}pyridin-2-yl)carbonyl]amino}-1,3-thiazol-4-yl)acetic acid]
- Emax: 466%
- pEC50: 7.36

Compound: COc1ccc(Sc2ccc(Sc3ccccn3)nc2C(=O)Nc2ncc(CCC(=O)O)s2)cc1 [Example 15, 3-{2-[({3-[(4-Methoxyphenyl)sulfanyl]-6-(pyridin-2-ylsulfanyl)pyridin-2-yl}carbonyl)amino]-1,3-thiazol-5-yl}propanoic acid]
- Emax: 645%
- pEC50: 6.86

Compound: CCOC(=O)Cc1csc(NC(=O)c2nc(Sc3nncn3C)ccc2Sc2ccc(C(F)(F)F)cc2)n1 [Example 46, Ethyl (2-{[(6-[(4-methyl-4H-1,2,4-triazol-3-yl)sulfanyl]-3-{[4-(trifluoromethyl)phenyl]sulfanyl}pyridin-2-yl)carbonyl]amino}-1,3-thiazol-4-yl)acetate]
- Emax: 466%
- pEC50: 7.18

Compound: COc1ccc(Sc2ccc(Sc3nncn3C)nc2C(=O)Nc2ncc(SCC(=O)O)s2)cc1 [Example 2, ({2-[({3-[(4-methoxyphenyl)sulfanyl]-6-[(4-methyl-4H-1,2,4-triazol-3-yl)sulfanyl]pyridin-2-yl}carbonyl)amino]-1,3-thiazol-5-yl}sulfanyl)acetic acid]
- Emax: 446%
- pEC50: 7.25

Compound: CCOC(=O)CSc1cnc(NC(=O)c2nc(Sc3nncn3C)ccc2Sc2ccc(C(F)(F)F)cc2)s1 [Example 43, Ethyl [(2-{[(6-[(4-methyl-4H-1,2,4-triazol-3-yl)sulfanyl]-3-{[4-(trifluoromethyl)phenyl]sulfanyl}pyridin-2-yl)carbonyl]amino}-1,3-thiazol-5-yl)sulfanyl]acetate]
- Emax: 384%
- pEC50: 7.55

Compound: CCOC(=O)C(C)(C)CSc1cnc(NC(=O)c2nc(Sc3nncn3C)ccc2Sc2ccc(OC)cc2)s1 [Example 5, Ethyl 3-({2-[({3-[(4-methoxyphenyl)sulfanyl]-6-[(4-methyl-4H-1,2,4-triazol-3-yl)sulfanyl]pyridin-2-yl}carbonyl)amino]-1,3-thiazol-5-yl}sulfanyl)-2,2-dimethylpropanoate]
- Emax: 490%
- pEC50: 7.84

Compound: O=C(O)Cc1nc(NC(=O)c2nc(Sc3ccc(F)cc3)ccc2Sc2ccc(F)cc2)sc1Cl [Example 30, {2-[({3,6-Bis[(4-fluorophenyl)sulfanyl]pyridin-2-yl}carbonyl)amino]-5-chloro-1,3-thiazol-4-yl}acetic acid]
- Emax: 393%
- pEC50: 7.79

Compound: CC(C)(CSc1cnc(NC(=O)c2nc(Sc3ccccn3)ccc2Sc2ccc(F)cc2)s1)C(=O)O [Example 38, 3-({2-[({3-[(4-Fluorophenyl)sulfanyl]-6-(pyridin-2-ylsulfanyl)pyridin-2-yl}carbonyl)amino]-1,3-thiazol-5-yl}sulfanyl)-2,2-dimethylpropanoic acid]
- Emax: 550%
- pEC50: 7.49

Compound: CCOC(=O)Cc1nc(NC(=O)c2nc(Sc3ccccn3)ccc2Sc2ccc(OC)cc2)sc1Cl [Example 12]
- Emax: 427%
- pEC50: 7.32

Compound: COC(=O)CCc1cnc(NC(=O)c2nc(Sc3ccccn3)ccc2Sc2ccc(OC)cc2)s1 [Example 14, Methyl 3-{2-[({3-[(4-methoxyphenyl)sulfanyl]-6-(pyridin-2-ylsulfanyl)pyridin-2-yl}carbonyl)amino]-1,3-thiazol-5-yl}propanoate]
- Emax: 486%
- pEC50: 6.54

Compound: O=C(O)CCc1cnc(NC(=O)c2nc(Sc3ccccn3)ccc2Sc2ccc(F)cc2)s1 [Example 40, 3-{2[({3-[(4-Fluorophenyl)sulfanyl]-6-(pyridin-2-ylsulfanyl)pyridin-2-yl}carbonyl)amino]-1,3-thiazol-5-yl}propanoic acid]
- Emax: 658%
- pEC50: 6.37

Compound: Cn1cnnc1Sc1ccc(Sc2ccc(C(F)(F)F)cc2)c(C(=O)Nc2ncc(SCC(=O)O)s2)n1 [Example 44, [(2-{[(6-[(4-Methyl-4H-1,2,4-triazol-3-yl)sulfanyl]-3-{[4-(trifluoromethyl)phenyl]sulfanyl}pyridin-2-yl)carbonyl]amino}-1,3-thiazol-5-yl)sulfanyl]acetic acid]
- Emax: 349%
- pEC50: 7.47

Compound: CCOC(=O)Cc1csc(NC(=O)c2nc(Sc3ccccn3)ccc2Sc2ccc(OC)cc2)n1 [Example 16, Ethyl {2-[({3-[(4-methoxyphenyl)sulfanyl]-6-(pyridin-2-ylsulfanyl)pyridin-2-yl}carbonyl)amino]-1,3-thiazol-4-yl}acetate]
- Emax: 524%
- pEC50: 6.56

Compound: COc1ccc(Sc2ccc(Sc3ccccn3)nc2C(=O)Nc2nc(CC(=O)O)cs2)cc1 [Example 17, {2-[({3-[(4-Methoxyphenyl)sulfanyl]-6-(pyridin-2-ylsulfanyl)pyridin-2-yl}carbonyl)amino]-1,3-thiazol-4-yl}acetic acid]
- Emax: 698%
- pEC50: 6.97

Compound: CCOC(=O)Cc1csc(NC(=O)c2nc(Sc3ccccn3)ccc2Sc2ccc(F)cc2)n1 [Example 33, Ethyl {2-[({3-[(4-fluorophenyl)sulfanyl]-6-(pyridin-2-ylsulfanyl)pyridin-2-yl}carbonyl)amino]-1,3-thiazol-4-yl}acetate]
- Emax: 456%
- pEC50: 5.33

Compound: CCOC(=O)Cc1nc(NC(=O)c2nc(Sc3ccccn3)ccc2Sc2ccc(F)cc2)sc1Cl [Example 31, Ethyl {5-chloro-2-[({3-[(4-fluorophenyl)sulfanyl]-6-(pyridin-2-ylsulfanyl)pyridin-2-yl}carbonyl)amino]-1,3-thiazol-4-yl}acetate]
- Emax: 436%
- pEC50: 6.90

Compound: CCOC(=O)Cc1nc(NC(=O)c2nc(Sc3nncn3C)ccc2Sc2ccc(C(F)(F)F)cc2)sc1Cl [Example 41, Ethyl (5-chloro-2-{[(6-[(4-methyl-4H-1,2,4-triazol-3-yl)sulfanyl]-3-{[4-(trifluoromethyl)phenyl]sulfanyl}pyridin-2-yl)carbonyl]amino}-1,3-thiazol-4-yl)acetate]
- Emax: 296%
- pEC50: 7.72

Compound: CCOC(=O)CSc1cnc(NC(=O)c2nc(Sc3ccc(F)cc3)ccc2Sc2ccc(F)cc2)s1 [Example 27]
- Emax: 182%
